The values below are quoted from earlier work in US20130121963A1, “N-PHENYL-2-PYRIMIDINEAMINE DERIVATIVES” (Concert Pharmaceuticals Inc., priority 2008, published 2013).

`Cc1ccc(NC(=O)c2ccc(CN3CCNCC3)cc2)cc1Nc1nccc(-c2cccnc2)n1` [N-demethylated piperazine derivative]: the half-life – broadly, the time in which the quantity being followed falls by half – (from the FDA label for imatinib) is 40 h. Also, for the setting “percent of the parent (imatinib) plasma AUC, from the FDA label”, the “plasma AUC of the metabolite relative to that of the parent” value is reported as “approximately 15%”.
